Like-named read-outs stand apart in the source and are kept apart here.

One data set relates to balb/c 3T3 cells. The data set can be described thus: Inhibitory action to EGF stimulated cell growth (3H-thymidine incorporation). Type of data set: cell-based. Conditions: 16 hours + 8 hours 3H-thymidine. The protocol:
A culture medium (hereinafter referred to as "CS DMEM") containing 10% of calf serum, which was prepared so that 2.5 x 10⁴ of fibroblasts (balb/c 3T3 cells) were contained in 0.5 ml, was added in a 24-well plate in an amount of 0.5 ml per well. After the fibroblasts were confluent in the state of a single layer, the culture medium was replaced with the same amount of 1% CS DMEM and the cells were incubated at 37°C for 12 hours in a humidified atmosphere of 95% air-5% CO₂. Then, 1 µg/25 µl/well of trans-(6)-shogaol and 5 ng/25 µl/well of EGF (supplied by Collaborative Research, Inc.) were added, and the cells were further incubated for 16 hours. Then, 0.5 µCi(1.85+10⁻¹⁶S⁻¹)/50 µl of ³H-thymidine was added and the cells were further incubated 8 hours. The culture medium was removed, and the cells were washed with a cold phosphate buffered saline. […] The radioactivity of ³H-thymidine included in the cells by this growth was measured, and the action of trans-(6)-shogaol to the growth of the cells was examined.
10% CS DMEM prepared so that 2.5 x 10⁴ of fibroblasts (balb/c 3T3 cells) were contained in 0.5 ml were added in a 24-well plate in an amount of 0.5 ml/well. […] The radioactivity of ³H-thymidine included in the cells by this growth was measured, and the function of cis-(6)-shogaol to the growth of the cells was examined.

In the next data set the target is T1, 5-lipoxygenase (Rattus norvegicus, UniProt P12527).
T1 construct: The supernatant was used as the standard enzyme of 5-lipoxygenase; endogenous in cells; host or cells: RBL-1 cultured cells, sonicated; 105,000 x G supernatant
T1 sequence (P12527 1-673): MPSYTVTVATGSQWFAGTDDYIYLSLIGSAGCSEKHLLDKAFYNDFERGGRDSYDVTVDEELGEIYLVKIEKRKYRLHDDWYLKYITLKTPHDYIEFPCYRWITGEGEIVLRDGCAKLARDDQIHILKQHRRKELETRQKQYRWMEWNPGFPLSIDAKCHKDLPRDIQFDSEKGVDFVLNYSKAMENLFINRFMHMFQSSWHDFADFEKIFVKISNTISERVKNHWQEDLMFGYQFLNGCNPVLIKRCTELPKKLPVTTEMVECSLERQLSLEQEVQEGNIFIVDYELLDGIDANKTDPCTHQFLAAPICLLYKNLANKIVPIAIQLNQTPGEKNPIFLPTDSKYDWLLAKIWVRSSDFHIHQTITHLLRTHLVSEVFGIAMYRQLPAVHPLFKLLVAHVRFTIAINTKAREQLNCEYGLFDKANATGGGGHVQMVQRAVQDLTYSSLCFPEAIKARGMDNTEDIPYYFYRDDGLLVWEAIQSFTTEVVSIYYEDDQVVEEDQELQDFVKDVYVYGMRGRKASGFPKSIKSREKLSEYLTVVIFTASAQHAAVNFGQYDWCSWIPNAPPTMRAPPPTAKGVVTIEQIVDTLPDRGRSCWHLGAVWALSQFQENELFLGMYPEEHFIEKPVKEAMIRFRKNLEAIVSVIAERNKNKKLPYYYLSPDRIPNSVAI
The experiment in a line: 5-Lipoxygenase-inhibiting action (5-HETE formation, enzyme from RBL-1 cultured cells). To be noted: 5-lipoxygenase from RBL-1 cells, 10 µM arachidonic acid, 37°C 10 minutes; tested at 5, 1 or 0.5 µM. In kind it is biochemical. The protocol:
RBL-1 cultured cells were suspended in a 50 mM phosphate buffer solution (pH 7.4) containing 1 mM EDTA and 10% ethylene glycol so that the cell concentration was 5 x 10⁶ per ml, and the cell suspension was subjected to an ultrasonic wave treatment. Then, centrifugal separation was carried out under 10,000 x G for 10 minutes and then under 105,000 x G for 60 minutes. The supernatant was used as the standard enzyme of 5-lipoxygenase.
A test tube was charged with a 50 mM phosphate buffer solution, 1.5 mM calcium chloride, 20 µM indomethacin, 18 mM glutathione, 6 mM ATP, 10 µM arachidonic acid, the obtained standard enzyme, and an ethanol solution of cis-(6)-shogaol, to a total volume of 0.6 ml and a final concentration of 5, 1 or 0.5 µM, and a reaction was carried out at 37°C for 10 minutes. […] The amount of 5-HETE in the liquid measured by the high-speed liquid chromatography [column = TSK-gel ODS-80TM (supplied by Toso), moving phase = acetonitrile/water/ acetic acid (60/40/0.02), flow rate = 1 ml/min, detection = ultraviolet ray (235 nm)], and the obtained value was designated as the enzyme activity. The inhibition ratio at each concentration was calculated by the following formula, and the concentration giving an inhibition ratio of 50% (hereinafter referred to as "IC₅₀") was determined. […]

For the next data set, the target named is cyclooxygenase. The experiment in a line: Cyclooxygenase-inhibiting action (PGE2 formation, rabbit kidney marrow microsome fraction). Type of data set: biochemical. Conditions: cyclooxygenase from rabbit kidney marrow microsomes, [1-14C] arachidonic acid, 37°C 15 minutes; tested at 40, 20, 10 or 5 µM. As for the experimental part: To 7.0 g of rabbit kidney marrow was added 60 ml of a 0.1M phosphate buffer solution (pH 7.5) containing 1 mM glutathione, and the mixture was homogenized by using a polytrone. The homogenate was subjected to the centrifugal separation under. 105,000 x G for 60 minutes to obtain a microsome fraction, and the fraction was dissolved in 7 ml of a 0.1M phosphate buffer solution (pH 7.5) containing 1 mM glutathione to obtain a standard enzyme of cyclooxygenase.
To 15 µl of the obtained standard enzyme were added 4 mM glutathione, 10 mM tryptophan, 0.25 µM hemoglobin, and a phosphate buffer solution (pH 7.5), each concentration being the final concentration, and [1-¹⁴C] arachidonic acid (5 x 10⁴ dpm) and cis-(6)-shogaol were added to a final concentration of 40, 20, 10 or 5 µM and a total volume of 200 µl. Incubation was carried out at 37 °C for 15 minutes, and 1N hydrochloric acid was added to stop the reaction. Prostaglandin E₂ (PGE₂) was added as the carrier and the reaction product was extracted with 2 ml of ether. […] Coloration was effected with an iodine vapor, the portion corresponding of […] was scratched out, and the radioactivity of PGE₂ was measured by a liquid scintillation counter. The inhibition ratio at each concentration was calculated according to the following formula, and the 1C₅₀ was determined. […]

The subject of data set [1] is male mice of the ICR line. The experiment in a line: Acute toxicity test. To be noted: mouse, in vivo, po, 500 mg/kg. The protocol: (§1) The acute toxicity test of cis-(6)-shogaol was carried out by using male mice of the ICR line.
Another data set is described as follows: Acute toxicity test. Also noted: species or system mice. To be noted: mouse, in vivo. As for the experimental part: as §1

Consider `CCCCC/C=C\C(=O)CCc1ccc(O)c(OC)c1` [cis-(6)-shogaol], for which the “growth inhibited, balb/c 3T3 cells the growth of which was promoted by EGF” value in the data set on balb/c 3T3 cells (Experiment 4: 0.5 µg/12.5 µl/well compound, 50 pg/25 µl/well mouse EGF) turned out to be 63.9%. The figures for the IC50 against 5-lipoxygenase and against cyclooxygenase were 830 nM and 11.7 µM, respectively. Also, the mortality result in data set [1] is reported as “none of the mice died”.
On to `CCCCC/C=C/C(=O)CCc1ccc(O)c(OC)c1` [trans-(6)-shogaol, 1(4-hydroxy-3-methoxyphenyl)-(E)-4-decen-3-one], for which, in the data set on balb/c 3T3 cells (Experiment 1: 1 µg/25 µl/well compound, 5 ng/25 µl/well EGF), the “growth inhibited, balb/c 3T3 cells the growth of which was promoted by EGF” value is on record as 52.7%. Further, the LD50 turned out to be 50.9 mg/kg in “Acute toxicity test” (iv) and 687 mg/kg in the data set “Acute toxicity test” (oral administration, Litchfield-Wilcoxon method, male ICR mice, read-out: LD50).

As usually defined, the IC50 is the midpoint of a concentration-inhibition curve. Low values mean greater potency, high ones weaker potency. Broadly, the LD50 is the dose expected to kill half of the subjects tested.
